For one test, the target named is Lck (h) (Homo sapiens, UniProt P06239). Put plainly: Lck Human  Kinase Enzymatic Radiometric Assay. It is filed as biochemical. The following applies: read-out: Lck IC50 nM Range*. The procedure, abridged:
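Substrate 33P-incorporation measured by scintillation counting after spotting on P30 filtermat and phosphoric acid washes. Human Lck reacted 40 min at RT in 50 mM Tris pH 7.5 with 10 mM MgAcetate, [gamma-33P]-ATP, 250 uM Cdc2 peptide, 0.1 mM EGTA and 0.1 mM Na3VO4.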

Test [1] has as its target T1, Recombinant (1-346) HPK1 (h) (Homo sapiens, UniProt Q92918).
T1 construct: Recombinant (1-346) HPK1 (h) is incubated with 8 mM MOPS pH 7.0
T1 sequence (Q92918 1-346): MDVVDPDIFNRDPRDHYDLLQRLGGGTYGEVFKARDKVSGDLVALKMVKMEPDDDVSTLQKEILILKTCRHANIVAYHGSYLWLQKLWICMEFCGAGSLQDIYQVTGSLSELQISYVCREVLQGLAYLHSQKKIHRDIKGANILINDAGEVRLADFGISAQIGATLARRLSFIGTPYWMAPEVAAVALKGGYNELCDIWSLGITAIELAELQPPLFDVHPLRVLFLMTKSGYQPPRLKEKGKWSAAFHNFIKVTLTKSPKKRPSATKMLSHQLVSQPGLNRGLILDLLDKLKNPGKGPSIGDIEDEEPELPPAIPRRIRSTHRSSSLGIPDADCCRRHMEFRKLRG
Put plainly: HPK1 Human STE Kinase Enzymatic Radiometric Assay. The format is biochemical. The following applies: read-out: HPK1 IC50 nM Range*. The method, then:
A stock solution of 10 mM of test compound is prepared in DMSO. The compound plate was prepared by 3-fold and 9-point serial dilutions. […] The reaction is initiated by The addition of the Mg/ATP mix. After incubation for 40 minutes at RT, the reaction is stopped by the addition of phosphoric acid to a concentration of 0.5%.

Here are results for 20 molecules from patent US20240343704A1, “HALO-SUBSTITUTED AMINO PYRIDINE COMPOUNDS AS INHIBITORS OF THE HAEMATOPOIETIC PROGENITOR KINASE 1 (HPK1)” (priority 2021, published 2024).

Structures are written as SMILES.

Lck (h), sequence (P06239 whole entry): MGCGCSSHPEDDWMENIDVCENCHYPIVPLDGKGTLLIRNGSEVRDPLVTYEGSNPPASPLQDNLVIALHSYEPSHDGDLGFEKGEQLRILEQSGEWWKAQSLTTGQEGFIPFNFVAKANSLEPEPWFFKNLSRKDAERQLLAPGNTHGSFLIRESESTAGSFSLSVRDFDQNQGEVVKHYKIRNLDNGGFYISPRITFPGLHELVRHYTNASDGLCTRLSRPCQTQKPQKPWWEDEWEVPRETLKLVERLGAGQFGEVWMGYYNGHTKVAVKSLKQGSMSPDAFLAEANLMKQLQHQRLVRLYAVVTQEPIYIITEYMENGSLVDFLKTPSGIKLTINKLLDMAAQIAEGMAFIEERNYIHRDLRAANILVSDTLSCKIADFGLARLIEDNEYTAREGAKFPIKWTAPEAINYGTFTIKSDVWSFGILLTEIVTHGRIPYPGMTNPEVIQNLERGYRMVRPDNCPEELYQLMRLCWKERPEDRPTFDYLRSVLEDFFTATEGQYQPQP

`Cc1cc2cc(-c3cc(-c4ccc(N5CCN(C(C)C)CC5)cc4)c(F)nc3N)cc(F)c2c(=O)[nH]1` [I-380, 6-(2-amino-6-fluoro-5-(4-(4-isopropylpiperazin-1-yl)phenyl)pyridin-3-yl)-8-fluoro-3-methylisoquinolin-1(2H)-one]: the IC50 on Lck (h) is more than 1000 nM; in test [1] it was 0.1 to 10 nM.
For `CC(C)(C)OC(=O)N1CCC2(CC1)CC(=O)c1cc(-c3cc(-c4ccc5c(c4)CCNC5=O)c(N)nc3F)ccc1O2` [I-174, tert-butyl 6-(6-amino-2-fluoro-5-(1-oxo-1,2,3,4-tetrahydroisoquinolin-6-yl)pyridin-3-yl)-4-oxospiro[chromane-2,4′-piperidine]-1′-carboxylate], in that order: more than 1000 nM and 11 to 100 nM.
For `Nc1ncc(-c2ccc(N3CCOCC3)cc2)c(F)c1-c1ccc2c(c1)CCNC2=O` [I-2, 6-(2-amino-4-fluoro-5-(4-morpholinophenyl)pyridin-3-yl)-3,4-dihydroisoquinolin-1(2H)-one], the results for the concentration for half-maximal inhibition (IC50) (on Lck (h); in test [1]) were more than 1000 nM and 11 to 100 nM, respectively.
For `Nc1nc(F)c(-c2ccc(N3CCN4CCCC4C3)cc2)cc1-c1ccc2c(c1)CCNC2=O` (stereo not shown) [I-280, 6-(2-amino-6-fluoro-5-(4-(hexahydropyrrolo[1,2-a]pyrazin-2(1H)-yl)phenyl)pyridin-3-yl)-3,4-dihydroisoquinolin-1(2H)-one], in that order: more than 1000 nM and 0.1 to 10 nM.
Taken in the same sequence, the figures for `Nc1nc(F)c(-c2ccc3c(c2)CNCC3)cc1-c1ccc2c(c1)CCNC2=O` [I-334, 6-(2-amino-6-fluoro-5-(1,2,3,4-tetrahydroisoquinolin-7-yl)pyridin-3-yl)-3,4-dihydroisoquinolin-1(2H)-one 2,2,2-trifluoroacetate] were more than 1000 nM and 11 to 100 nM.
For `CN1C[C@@H]2C[C@]2(c2ccc(-c3cc(-c4ccc5c(c4)CCNC5=O)c(N)nc3F)cc2)C1` [I-106, 6-(2-amino-6-fluoro-5-(4-((1S,5R)-3-methyl-3-azabicyclo[3.1.0]hexan-1-yl)phenyl)pyridin-3-yl)-3,4-dihydroisoquinolin-1(2H)-one], in that order: more than 1000 nM and 0.1 to 10 nM.
`Nc1nc(F)c(-c2ccc(C3=CCN(CC4CC4)CC3)cc2)cc1-c1cc2c(cc1F)C(=O)NCC2` [I-297, 6-(2-amino-5-(4-(1-(cyclopropylmethyl)-1,2,3,6-tetrahydropyridin-4-yl)phenyl)-6-fluoropyridin-3-yl)-7-fluoro-3,4-dihydroisoquinolin-1(2H)-one]: the IC50 on Lck (h) was more than 1000 nM; in test [1] it was 0.1 to 10 nM.
For `CC1CN(c2ccc(-c3cc(-c4ccc5c(c4)CCNC5=O)c(N)nc3F)cc2)CCN1C` (stereo not shown) [I-88, 6-(2-amino-5-(4-(3,4-dimethylpiperazin-1-yl)phenyl)-6-fluoropyridin-3-yl)-3,4-dihydroisoquinolin-1(2H)-one], in that order: more than 1000 nM and 0.1 to 10 nM.
Taken in the same sequence, the figures for `C[C@@H]1C[C@@H](Oc2ccc(-c3cc(-c4ccc5c(c4)CCNC5=O)c(N)nc3F)cc2)C[C@H](C)N1` [I-178, 6-(2-amino-5-(4-(((2S,4s,6R)-2,6-dimethylpiperidin-4-yl)oxy)phenyl)-6-fluoropyridin-3-yl)-3,4-dihydroisoquinolin-1(2H)-one] were more than 1000 nM and 0.1 to 10 nM.
For `Nc1nc(F)c(-c2ccc(C3CN(CC(F)(F)F)CCO3)cc2)cc1-c1ccc2c(c1)CCNC2=O` (stereo not shown) [I-90, 6-(2-amino-6-fluoro-5-(4-(4-(2,2,2-trifluoroethyl)morpholin-2-yl)phenyl)pyridin-3-yl)-3,4-dihydroisoquinolin-1(2H)-one], in that order: more than 1000 nM and 11 to 100 nM.
As to `CC(C)N1CC=C(c2ccc(-c3cc(-c4ccc5c(c4)CCNC5=O)c(N)nc3F)cc2)CC1` [I-81, 6-(2-amino-6-fluoro-5-(4-(1-isopropyl-1,2,3,6-tetrahydropyridin-4-yl)phenyl)pyridin-3-yl)-3,4-dihydroisoquinolin-1(2H)-one], the 50% inhibitory concentration (IC50) at Lck (h) is more than 1000 nM; in test [1] it was 0.1 to 10 nM.
For `Nc1nc(F)c(-c2ccc3c(c2)C(=O)CC2(CCNCC2)O3)cc1-c1ccc2c(c1)CCNC2=O` [I-182, 6-(6-amino-2-fluoro-5-(1-oxo-1,2,3,4-tetrahydroisoquinolin-6-yl)pyridin-3-yl)spiro[chromane-2,4′-piperidin]-4-one 2,2,2-trifluoroacetate], in that order: more than 1000 nM and 0.1 to 10 nM.
For `Nc1nc(F)c(-c2ccc(OC3CCNCC3)c(F)c2)cc1-c1ccc2c(c1)CCNC2=O` [I-179, 6-(2-amino-6-fluoro-5-(3-fluoro-4-(piperidin-4-yloxy)phenyl)pyridin-3-yl)-3,4-dihydroisoquinolin-1(2H)-one], in that order: more than 1000 nM and 0.1 to 10 nM.
Taken in the same sequence, the figures for `CC(C)N1CCN(c2ccc(-c3cc(-c4cc(F)c5c(c4)CCNC5=O)c(N)nc3F)cc2)CC1` [I-336, 6-(2-amino-6-fluoro-5-(4-(4-isopropylpiperazin-1-yl)phenyl)pyridin-3-yl)-8-fluoro-3,4-dihydroisoquinolin-1(2H)-one] were 101 to 1000 nM and 0.1 to 10 nM.
On to `CC(C)N1CCN(c2ccc(-c3cc(-c4cc5c(cc4F)C(=O)NCC5)c(N)nc3F)cc2C(F)(F)F)CC1` [I-263, 6-(2-amino-6-fluoro-5-(4-(4-isopropylpiperazin-1-yl)-3-(trifluoromethyl)phenyl)pyridin-3-yl)-7-fluoro-3,4-dihydroisoquinolin-1(2H)-one], for which the IC50 on Lck (h) is more than 1000 nM; in test [1] it was 0.1 to 10 nM.
For `CN1CCOc2cc(-c3cc(-c4ccc5c(c4)CCNC5=O)c(N)nc3F)ccc21` [I-58, 6-(2-amino-6-fluoro-5-(4-methyl-3,4-dihydro-2H-benzo[b][1,4]oxazin-7-yl)pyridin-3-yl)-3,4-dihydroisoquinolin-1(2H)-one], in that order: more than 1000 nM and 0.1 to 10 nM.
As to `CC(C)N1CCC(Oc2cc(F)c(-c3cc(-c4ccc5c(c4)CCNC5=O)c(N)nc3F)cc2F)CC1` [I-271, 6-(2-amino-5-(2,5-difluoro-4-((1-isopropylpiperidin-4-yl)oxy)phenyl)-6-fluoropyridin-3-yl)-3,4-dihydroisoquinolin-1(2H)-one], the IC50 on Lck (h) was more than 1000 nM; in test [1], 11 to 100 nM.
Taken in the same sequence, the figures for `Nc1nc(F)c(-c2ccc(C3CCN(CC4CC4)CC3)cc2)cc1-c1cc(F)c2c(c1)CCNC2=O` [I-308, 6-(2-amino-5-(4-(1-(cyclopropylmethyl)piperidin-4-yl)phenyl)-6-fluoropyridin-3-yl)-8-fluoro-3,4-dihydroisoquinolin-1(2H)-one] were more than 1000 nM and 0.1 to 10 nM.
Taken in the same sequence, the figures for `C[C@H](C1CC1)N1CCN(c2ccc(-c3cc(-c4cc(F)c5c(c4)CCNC5=O)c(N)nc3F)cc2)CC1` [I-390, (R)-6-(2-amino-5-(4-(4-(1-cyclopropylethyl)piperazin-1-yl)phenyl)-6-fluoropyridin-3-yl)-8-fluoro-3,4-dihydroisoquinolin-1(2H)-one] were 101 to 1000 nM and 0.1 to 10 nM.
`Nc1nc(F)c(-c2ccc(N3CCN(CC(F)F)CC3)cc2)cc1-c1ccc2c(c1)CCNC2=O` [I-21, 6-(2-amino-5-(4-(4-(2,2-difluoroethyl)piperazin-1-yl)phenyl)-6-fluoropyridin-3-yl)-3,4-dihydroisoquinolin-1(2H)-one]: the IC50 at Lck (h) was more than 1000 nM; in test [1] it was 0.1 to 10 nM.
